Consider 14 compounds from ChEMBL document CHEMBL4651402, “Screening of ~5500 FDA-approved drugs and clinical candidates for anti-SARS-CoV-2 activity” (2021).

Data set [1] relates to SARS-CoV-2. The data set can be described thus: microbe, parasite or virus in culture. The class given is functional, organism-based, Chlorocebus sabaeus, Vero C1008. To be noted: Severe acute respiratory syndrome coronavirus 2, Vero C1008, 48 h.
The nature of another data set: in vitro. Particulars: chlorocebus sabaeus, Vero E6 (Vero C1008) cells.
Data set [2] concerns SARS-CoV-2. Description: microbe, parasite or virus in culture. To be noted: Severe acute respiratory syndrome coronavirus 2, Vero C1008, 48 h.

Turning to `NC(=O)C1(N2CCCCC2)CCN(CCCN2c3ccccc3CCc3ccccc32)CC1` [CARPIPRAMINE], the IC50 in the data set with SARS-CoV-2 [1] (read-out: IC50) was over 100 µM; with SARS-CoV-2 [1] (read-out: pIC50 (converted)), over 100 µM; with SARS-CoV-2 [2], 8.91 µM; with SARS-CoV-2 [2] (read-out: pIC50 (converted)), 8.91 µM. Moreover, the CC50 (in general, the concentration giving 50% cytotoxicity) at 48 h in “in vitro” (CC50) is 8.61 µM; in the data set “in vitro” (pCC50), 8.51 µM.
Take `COc1cc2c(N3CCN(C(=O)Nc4ccc(OC(C)C)cc4)CC3)ncnc2cc1OCCCN1CCCCC1` [TANDUTINIB]: the IC50 in the data set on SARS-CoV-2 [1] (read-out: IC50), in the data set with SARS-CoV-2 [1] (read-out: pIC50 (converted)), in the data set with SARS-CoV-2 [2] and in the data set on SARS-CoV-2 [2] (read-out: pIC50 (converted)) was over 100 µM in each case. The CC50 at 48 h in the data set “in vitro” (CC50) and in “in vitro” (pCC50) was 11.5 µM in each case.
Take `CNCc1ccc(-c2cc(-c3nc(-c4ccc(S(=O)(=O)C(C)C)cc4)cnc3N)on2)cc1` [BERZOSERTIB]: the IC50 in the data set on SARS-CoV-2 [1] (read-out: IC50) is about 7.16 µM; with SARS-CoV-2 [1] (read-out: pIC50 (converted)) it was about 7.08 µM; in the data set on SARS-CoV-2 [2] it was over 5.01 µM; in the data set with SARS-CoV-2 [2] (read-out: pIC50 (converted)), over 5.01 µM. The CC50 at 48 h in “in vitro” (CC50) and in “in vitro” (pCC50) was 10.2 µM each time.
On to `Cc1cc(O[C@@H](CCC(F)(F)F)c2ccc(C(=O)NCCC(=O)O)cc2)cc(C)c1-c1ccc(C(C)(C)C)cc1` [ADOMEGLIVANT], for which the IC50 with SARS-CoV-2 [1] (read-out: IC50) was over 6.31 µM; in the data set with SARS-CoV-2 [1] (read-out: pIC50 (converted)), over 6.31 µM; in the data set with SARS-CoV-2 [2], over 10 µM; in the data set with SARS-CoV-2 [2] (read-out: pIC50 (converted)), over 10 µM. Besides, the results for the CC50 at 48 h in the data set “in vitro” (CC50) and in the data set “in vitro” (pCC50) were about 10.4 µM and about 10.2 µM, respectively.
For `COc1ccc([C@@H](Cc2ccncc2)c2ccccc2)cc1OC1CCCC1`, the IC50 with SARS-CoV-2 [1] (read-out: IC50), with SARS-CoV-2 [1] (read-out: pIC50 (converted)), with SARS-CoV-2 [2] and in the data set with SARS-CoV-2 [2] (read-out: pIC50 (converted)) was over 100 µM throughout. For the same compound, the CC50 at 48 h in the data set “in vitro” (CC50) and in the data set “in vitro” (pCC50) was 23.4 µM each time.
`CN(C)CCOC(C)(c1ccccc1)c1ccc(Cl)cc1` (centres undefined) [CHLORPHENOXAMINE]: the IC50 is about 14.5 µM with SARS-CoV-2 [1] (read-out: IC50), about 14.5 µM in the data set on SARS-CoV-2 [1] (read-out: pIC50 (converted)), 19.5 µM with SARS-CoV-2 [2] and 19.5 µM in the data set with SARS-CoV-2 [2] (read-out: pIC50 (converted)). For the same compound, the CC50 at 48 h in “in vitro” (CC50) and in the data set “in vitro” (pCC50) was 28.2 µM throughout.
For the compound `CC[C@H](C(=O)[C@H](C)[C@@H](O)[C@H](C)CCc1ccc(C)c(O)c1C(=O)O)[C@@H]1O[C@@](CC)([C@H]2CC[C@](O)(CC)[C@@H](C)O2)C[C@@H]1C`, the IC50 is 1.07 µM with SARS-CoV-2 [1] (read-out: IC50), 1.07 µM in the data set on SARS-CoV-2 [1] (read-out: pIC50 (converted)), over 0.631 µM in the data set on SARS-CoV-2 [2] and over 0.631 µM with SARS-CoV-2 [2] (read-out: pIC50 (converted)). In addition, the CC50 at 48 h in “in vitro” (CC50) and in the data set “in vitro” (pCC50) was about 5.37 µM in each case.
Turning to `CC(C)CN(C[C@@H](O)[C@H](Cc1ccccc1)NC(=O)O[C@H]1CO[C@H]2OCC[C@H]21)S(=O)(=O)c1ccc2nc(NC3CCN(C4CCCC4)CC3)sc2c1` [TMC 310911], the IC50 with SARS-CoV-2 [1] (read-out: IC50) was about 9.55 µM; with SARS-CoV-2 [1] (read-out: pIC50 (converted)), about 9.55 µM; in the data set on SARS-CoV-2 [2] it was 3.94 µM; with SARS-CoV-2 [2] (read-out: pIC50 (converted)) it was 3.89 µM. Further, the CC50 at 48 h in “in vitro” (CC50) is about 13 µM; in the data set “in vitro” (pCC50), about 12.9 µM.
In the case of `CC(C)[C@H](N/C(=N\S(=O)(=O)c1ccc(Cl)cc1)N1C[C@@H](c2ccccc2)C(c2ccc(Cl)cc2)=N1)C(N)=O`, the IC50 in the data set on SARS-CoV-2 [1] (read-out: IC50) is over 50.1 µM; in the data set on SARS-CoV-2 [1] (read-out: pIC50 (converted)) it was over 50.1 µM; in the data set on SARS-CoV-2 [2], over 100 µM; with SARS-CoV-2 [2] (read-out: pIC50 (converted)), over 100 µM. Besides, the CC50 at 48 h in the data set “in vitro” (CC50) is 16 µM; in the data set “in vitro” (pCC50) it was 15.8 µM.
Take `NC(=O)C1CN(CCCCC(c2ccc(F)cc2)c2ccc(F)cc2)CCN1CC(=O)Nc1c(Cl)cc(N)cc1Cl` (centres undefined) [DRAFLAZINE]: the IC50 with SARS-CoV-2 [1] (read-out: IC50), with SARS-CoV-2 [1] (read-out: pIC50 (converted)), in the data set with SARS-CoV-2 [2] and with SARS-CoV-2 [2] (read-out: pIC50 (converted)) was over 100 µM throughout. In addition, the results for the CC50 at 48 h in the data set “in vitro” (CC50) and in the data set “in vitro” (pCC50) were 9.66 µM and 9.55 µM, respectively.
As for `CCCOc1ccc(C(=O)CCN2CCCCC2)cc1` [PROPIPOCAINE], the IC50 in the data set on SARS-CoV-2 [1] (read-out: IC50), in the data set with SARS-CoV-2 [1] (read-out: pIC50 (converted)), with SARS-CoV-2 [2] and in the data set with SARS-CoV-2 [2] (read-out: pIC50 (converted)) was over 100 µM each time. The CC50 at 48 h in “in vitro” (CC50) and in the data set “in vitro” (pCC50) was 31.6 µM in each case.
For `COC(=O)[C@H]1[C@H]2C[C@@H]3c4[nH]c5cc(OC)ccc5c4CCN3C[C@H]2C[C@@H](OC(=O)c2cc(OC)c(OC)c(OC)c2)[C@@H]1OC` [RESERPINE], the IC50 in the data set on SARS-CoV-2 [1] (read-out: IC50) is over 50.1 µM; with SARS-CoV-2 [1] (read-out: pIC50 (converted)) it was over 50.1 µM; with SARS-CoV-2 [2], over 25.1 µM; with SARS-CoV-2 [2] (read-out: pIC50 (converted)) it was over 25.1 µM. The CC50 at 48 h in “in vitro” (CC50) and in “in vitro” (pCC50) was about 11 µM each time.
Consider `CCN(CC)CCNC(=O)c1cc(Cl)c(NC(=O)COc2ccc(Cl)cc2)cc1OC` [CLOXACEPRIDE], for which the IC50 was over 100 µM in the data set with SARS-CoV-2 [1] (read-out: IC50), over 100 µM with SARS-CoV-2 [1] (read-out: pIC50 (converted)), 3.63 µM in the data set on SARS-CoV-2 [2] and 3.63 µM in the data set with SARS-CoV-2 [2] (read-out: pIC50 (converted)). The CC50 at 48 h in “in vitro” (CC50) is 2.85 µM; in the data set “in vitro” (pCC50), 2.82 µM.
As for `COC(=O)C1C2CC3c4[nH]c5cc(OC)ccc5c4CCN3CC2CC(OC(=O)/C=C/c2cc(OC)c(OC)c(OC)c2)C1OC` (centres undefined), the IC50 was over 100 µM in the data set with SARS-CoV-2 [1] (read-out: IC50), over 100 µM in the data set with SARS-CoV-2 [1] (read-out: pIC50 (converted)), over 50.1 µM in the data set on SARS-CoV-2 [2] and over 50.1 µM in the data set with SARS-CoV-2 [2] (read-out: pIC50 (converted)). In addition, the CC50 at 48 h in the data set “in vitro” (CC50) and in the data set “in vitro” (pCC50) was 5.5 µM throughout.
